Data on 20 substances can be found in the OligoGym collection.

Oligonucleotides are given in HELM: sugar(base)linkage, 5' to 3'; d 2'-deoxyribose, r ribose, m 2'-O-methylribose, p phosphate. ss, as = sense and antisense strand
Further: test concentration or dose not given here.

This data set deals with Mmp7 (rat). As to the kind of experiment: reporter assay of Huesken 2005. To be noted: siRNA. (In a reporter assay the amount or activity of a reporter protein is the signal.)
Consider “RNA1{r(A)p.r(A)p.r(G)p.r(C)p.r(C)p.r(C)p.r(A)p.r(G)p.r(G)p.r(U)p.r(G)p.r(U)p.r(G)p.r(G)p.r(A)p.r(G)p.r(U)p.r(G)p.r(C)p.d(T)p.d(T)}|RNA2{r(G)p.r(C)p.r(A)p.r(C)p.r(U)p.r(C)p.r(C)p.r(A)p.r(C)p.r(A)p.r(C)p.r(C)p.r(U)p.r(G)p.r(G)p.r(G)p.r(C)p.r(U)p.r(U)p.d(C)p.d(T)}$$$RNA1{StrandType:ss}|RNA2{StrandType:as}$”, for which the normalised inhibition (eCFP-eYFP dual reporter) came out at 47.5%.
Under “RNA1{r(C)p.r(C)p.r(G)p.r(C)p.r(A)p.r(C)p.r(U)p.r(U)p.r(C)p.r(A)p.r(G)p.r(U)p.r(G)p.r(G)p.r(G)p.r(A)p.r(A)p.r(C)p.r(A)p.d(T)p.d(T)}|RNA2{r(U)p.r(G)p.r(U)p.r(U)p.r(C)p.r(C)p.r(C)p.r(A)p.r(C)p.r(U)p.r(G)p.r(A)p.r(A)p.r(G)p.r(U)p.r(G)p.r(C)p.r(G)p.r(G)p.d(T)p.d(C)}$$$RNA1{StrandType:ss}|RNA2{StrandType:as}$” stands 91.6%; under “RNA1{r(G)p.r(C)p.r(C)p.r(A)p.r(C)p.r(U)p.r(G)p.r(U)p.r(C)p.r(C)p.r(C)p.r(A)p.r(G)p.r(G)p.r(A)p.r(A)p.r(G)p.r(C)p.r(C)p.d(T)p.d(T)}|RNA2{r(G)p.r(G)p.r(C)p.r(U)p.r(U)p.r(C)p.r(C)p.r(U)p.r(G)p.r(G)p.r(G)p.r(A)p.r(C)p.r(A)p.r(G)p.r(U)p.r(G)p.r(G)p.r(C)p.d(A)p.d(G)}$$$RNA1{StrandType:ss}|RNA2{StrandType:as}$”, 66%.
Take “RNA1{r(C)p.r(A)p.r(U)p.r(G)p.r(G)p.r(A)p.r(G)p.r(A)p.r(U)p.r(A)p.r(A)p.r(U)p.r(G)p.r(C)p.r(A)p.r(G)p.r(A)p.r(A)p.r(G)p.d(T)p.d(T)}|RNA2{r(C)p.r(U)p.r(U)p.r(C)p.r(U)p.r(G)p.r(C)p.r(A)p.r(U)p.r(U)p.r(A)p.r(U)p.r(C)p.r(U)p.r(C)p.r(C)p.r(A)p.r(U)p.r(G)p.d(A)p.d(C)}$$$RNA1{StrandType:ss}|RNA2{StrandType:as}$”: the normalised inhibition (eCFP-eYFP dual reporter) stood at 97.5%.
For “RNA1{r(G)p.r(C)p.r(C)p.r(A)p.r(G)p.r(G)p.r(C)p.r(C)p.r(U)p.r(C)p.r(G)p.r(G)p.r(C)p.r(G)p.r(G)p.r(A)p.r(G)p.r(A)p.r(U)p.d(T)p.d(T)}|RNA2{r(A)p.r(U)p.r(C)p.r(U)p.r(C)p.r(C)p.r(G)p.r(C)p.r(C)p.r(G)p.r(A)p.r(G)p.r(G)p.r(C)p.r(C)p.r(U)p.r(G)p.r(G)p.r(C)p.d(C)p.d(C)}$$$RNA1{StrandType:ss}|RNA2{StrandType:as}$” the value was 36.1%.
For “RNA1{r(G)p.r(G)p.r(C)p.r(G)p.r(C)p.r(A)p.r(G)p.r(A)p.r(A)p.r(U)p.r(U)p.r(A)p.r(U)p.r(C)p.r(U)p.r(U)p.r(A)p.r(G)p.r(G)p.d(T)p.d(T)}|RNA2{r(C)p.r(C)p.r(U)p.r(A)p.r(A)p.r(G)p.r(A)p.r(U)p.r(A)p.r(A)p.r(U)p.r(U)p.r(C)p.r(U)p.r(G)p.r(C)p.r(G)p.r(C)p.r(C)p.d(T)p.d(G)}$$$RNA1{StrandType:ss}|RNA2{StrandType:as}$” the value was 134%; for “RNA1{r(G)p.r(A)p.r(A)p.r(G)p.r(C)p.r(C)p.r(C)p.r(A)p.r(G)p.r(G)p.r(U)p.r(G)p.r(U)p.r(G)p.r(G)p.r(A)p.r(G)p.r(U)p.r(G)p.d(T)p.d(T)}|RNA2{r(C)p.r(A)p.r(C)p.r(U)p.r(C)p.r(C)p.r(A)p.r(C)p.r(A)p.r(C)p.r(C)p.r(U)p.r(G)p.r(G)p.r(G)p.r(C)p.r(U)p.r(U)p.r(C)p.d(T)p.d(G)}$$$RNA1{StrandType:ss}|RNA2{StrandType:as}$”, 94%; for “RNA1{r(G)p.r(C)p.r(G)p.r(G)p.r(A)p.r(G)p.r(A)p.r(U)p.r(G)p.r(C)p.r(U)p.r(C)p.r(A)p.r(C)p.r(U)p.r(U)p.r(U)p.r(G)p.r(A)p.d(T)p.d(T)}|RNA2{r(U)p.r(C)p.r(A)p.r(A)p.r(A)p.r(G)p.r(U)p.r(G)p.r(A)p.r(G)p.r(C)p.r(A)p.r(U)p.r(C)p.r(U)p.r(C)p.r(C)p.r(G)p.r(C)p.d(C)p.d(G)}$$$RNA1{StrandType:ss}|RNA2{StrandType:as}$”, 108%.
Under “RNA1{r(C)p.r(U)p.r(G)p.r(A)p.r(G)p.r(G)p.r(G)p.r(A)p.r(A)p.r(A)p.r(U)p.r(G)p.r(C)p.r(A)p.r(G)p.r(A)p.r(A)p.r(G)p.r(U)p.d(T)p.d(T)}|RNA2{r(A)p.r(C)p.r(U)p.r(U)p.r(C)p.r(U)p.r(G)p.r(C)p.r(A)p.r(U)p.r(U)p.r(U)p.r(C)p.r(C)p.r(C)p.r(U)p.r(C)p.r(A)p.r(G)p.d(T)p.d(T)}$$$RNA1{StrandType:ss}|RNA2{StrandType:as}$” stands 83.4%.
With “RNA1{r(C)p.r(C)p.r(U)p.r(C)p.r(G)p.r(G)p.r(C)p.r(G)p.r(G)p.r(A)p.r(G)p.r(A)p.r(U)p.r(G)p.r(C)p.r(U)p.r(C)p.r(A)p.r(C)p.d(T)p.d(T)}|RNA2{r(G)p.r(U)p.r(G)p.r(A)p.r(G)p.r(C)p.r(A)p.r(U)p.r(C)p.r(U)p.r(C)p.r(C)p.r(G)p.r(C)p.r(C)p.r(G)p.r(A)p.r(G)p.r(G)p.d(C)p.d(C)}$$$RNA1{StrandType:ss}|RNA2{StrandType:as}$”, the normalised inhibition (eCFP-eYFP dual reporter) was 72.1%.
Under “RNA1{r(G)p.r(U)p.r(U)p.r(C)p.r(U)p.r(G)p.r(U)p.r(G)p.r(A)p.r(U)p.r(G)p.r(U)p.r(A)p.r(C)p.r(C)p.r(C)p.r(U)p.r(A)p.r(C)p.d(T)p.d(T)}|RNA2{r(G)p.r(U)p.r(A)p.r(G)p.r(G)p.r(G)p.r(U)p.r(A)p.r(C)p.r(A)p.r(U)p.r(C)p.r(A)p.r(C)p.r(A)p.r(G)p.r(A)p.r(A)p.r(C)p.d(T)p.d(G)}$$$RNA1{StrandType:ss}|RNA2{StrandType:as}$” stands 105%.
Under “RNA1{r(U)p.r(U)p.r(C)p.r(C)p.r(U)p.r(G)p.r(U)p.r(U)p.r(U)p.r(G)p.r(U)p.r(U)p.r(G)p.r(C)p.r(C)p.r(A)p.r(C)p.r(U)p.r(C)p.d(T)p.d(T)}|RNA2{r(G)p.r(A)p.r(G)p.r(U)p.r(G)p.r(G)p.r(C)p.r(A)p.r(A)p.r(C)p.r(A)p.r(A)p.r(A)p.r(C)p.r(A)p.r(G)p.r(G)p.r(A)p.r(A)p.d(G)p.d(T)}$$$RNA1{StrandType:ss}|RNA2{StrandType:as}$” stands 37.6%.
For “RNA1{r(U)p.r(U)p.r(G)p.r(C)p.r(C)p.r(G)p.r(G)p.r(A)p.r(G)p.r(A)p.r(C)p.r(U)p.r(G)p.r(G)p.r(A)p.r(A)p.r(A)p.r(G)p.r(C)p.d(T)p.d(T)}|RNA2{r(G)p.r(C)p.r(U)p.r(U)p.r(U)p.r(C)p.r(C)p.r(A)p.r(G)p.r(U)p.r(C)p.r(U)p.r(C)p.r(C)p.r(G)p.r(G)p.r(C)p.r(A)p.r(A)p.d(A)p.d(C)}$$$RNA1{StrandType:ss}|RNA2{StrandType:as}$” the value was 1.9%; for “RNA1{r(G)p.r(C)p.r(C)p.r(A)p.r(G)p.r(A)p.r(U)p.r(G)p.r(U)p.r(U)p.r(G)p.r(C)p.r(A)p.r(G)p.r(A)p.r(A)p.r(U)p.r(U)p.r(C)p.d(T)p.d(T)}|RNA2{r(G)p.r(A)p.r(A)p.r(U)p.r(U)p.r(C)p.r(U)p.r(G)p.r(C)p.r(A)p.r(A)p.r(C)p.r(A)p.r(U)p.r(C)p.r(U)p.r(G)p.r(G)p.r(C)p.d(A)p.d(C)}$$$RNA1{StrandType:ss}|RNA2{StrandType:as}$”, 100%; for “RNA1{r(U)p.r(U)p.r(C)p.r(G)p.r(C)p.r(A)p.r(A)p.r(G)p.r(G)p.r(G)p.r(G)p.r(A)p.r(G)p.r(A)p.r(U)p.r(C)p.r(A)p.r(C)p.r(G)p.d(T)p.d(T)}|RNA2{r(C)p.r(G)p.r(U)p.r(G)p.r(A)p.r(U)p.r(C)p.r(U)p.r(C)p.r(C)p.r(C)p.r(C)p.r(U)p.r(U)p.r(G)p.r(C)p.r(G)p.r(A)p.r(A)p.d(G)p.d(C)}$$$RNA1{StrandType:ss}|RNA2{StrandType:as}$”, 26.8%.
As for “RNA1{r(A)p.r(G)p.r(G)p.r(G)p.r(G)p.r(A)p.r(G)p.r(A)p.r(U)p.r(C)p.r(A)p.r(C)p.r(G)p.r(G)p.r(A)p.r(G)p.r(A)p.r(C)p.r(A)p.d(T)p.d(T)}|RNA2{r(U)p.r(G)p.r(U)p.r(C)p.r(U)p.r(C)p.r(C)p.r(G)p.r(U)p.r(G)p.r(A)p.r(U)p.r(C)p.r(U)p.r(C)p.r(C)p.r(C)p.r(C)p.r(U)p.d(T)p.d(G)}$$$RNA1{StrandType:ss}|RNA2{StrandType:as}$”, the normalised inhibition (eCFP-eYFP dual reporter) was 102%.
Under “RNA1{r(C)p.r(C)p.r(U)p.r(U)p.r(C)p.r(A)p.r(C)p.r(G)p.r(A)p.r(C)p.r(U)p.r(C)p.r(U)p.r(A)p.r(A)p.r(A)p.r(A)p.r(C)p.r(A)p.d(T)p.d(T)}|RNA2{r(U)p.r(G)p.r(U)p.r(U)p.r(U)p.r(U)p.r(A)p.r(G)p.r(A)p.r(G)p.r(U)p.r(C)p.r(G)p.r(U)p.r(G)p.r(A)p.r(A)p.r(G)p.r(G)p.d(T)p.d(A)}$$$RNA1{StrandType:ss}|RNA2{StrandType:as}$” stands 126%; under “RNA1{r(U)p.r(A)p.r(C)p.r(U)p.r(G)p.r(G)p.r(A)p.r(C)p.r(G)p.r(G)p.r(A)p.r(U)p.r(G)p.r(G)p.r(U)p.r(G)p.r(A)p.r(G)p.r(G)p.d(T)p.d(T)}|RNA2{r(C)p.r(C)p.r(U)p.r(C)p.r(A)p.r(C)p.r(C)p.r(A)p.r(U)p.r(C)p.r(C)p.r(G)p.r(U)p.r(C)p.r(C)p.r(A)p.r(G)p.r(U)p.r(A)p.d(C)p.d(T)}$$$RNA1{StrandType:ss}|RNA2{StrandType:as}$”, 32.6%; under “RNA1{r(U)p.r(G)p.r(C)p.r(C)p.r(U)p.r(U)p.r(U)p.r(G)p.r(C)p.r(A)p.r(C)p.r(C)p.r(G)p.r(G)p.r(G)p.r(G)p.r(C)p.r(C)p.r(A)p.d(T)p.d(T)}|RNA2{r(U)p.r(G)p.r(G)p.r(C)p.r(C)p.r(C)p.r(C)p.r(G)p.r(G)p.r(U)p.r(G)p.r(C)p.r(A)p.r(A)p.r(A)p.r(G)p.r(G)p.r(C)p.r(A)p.d(T)p.d(G)}$$$RNA1{StrandType:ss}|RNA2{StrandType:as}$”, 59.1%.
For “RNA1{r(C)p.r(G)p.r(G)p.r(C)p.r(G)p.r(G)p.r(A)p.r(G)p.r(A)p.r(U)p.r(G)p.r(C)p.r(U)p.r(C)p.r(A)p.r(C)p.r(U)p.r(U)p.r(U)p.d(T)p.d(T)}|RNA2{r(A)p.r(A)p.r(A)p.r(G)p.r(U)p.r(G)p.r(A)p.r(G)p.r(C)p.r(A)p.r(U)p.r(C)p.r(U)p.r(C)p.r(C)p.r(G)p.r(C)p.r(C)p.r(G)p.d(A)p.d(G)}$$$RNA1{StrandType:ss}|RNA2{StrandType:as}$” the value was 118%.
